Assays:
PPARγ-RXRα heterodimer = biological target: T1, PPARγ-RXRα heterodimer (Homo sapiens, UniProt P37231); assay: PPARγ-RXRα heterodimer ligand activity (luciferase reporter, PPARγ:RXRα:4ERPP/CHO-K1 cells); format: cell-based; settings: luciferase activity at 100 nM test compound relative to non-administration group as 1
T1 construct: expressed in transfected cells
T1 sequence (P37231 1-477 isoform P37231-2): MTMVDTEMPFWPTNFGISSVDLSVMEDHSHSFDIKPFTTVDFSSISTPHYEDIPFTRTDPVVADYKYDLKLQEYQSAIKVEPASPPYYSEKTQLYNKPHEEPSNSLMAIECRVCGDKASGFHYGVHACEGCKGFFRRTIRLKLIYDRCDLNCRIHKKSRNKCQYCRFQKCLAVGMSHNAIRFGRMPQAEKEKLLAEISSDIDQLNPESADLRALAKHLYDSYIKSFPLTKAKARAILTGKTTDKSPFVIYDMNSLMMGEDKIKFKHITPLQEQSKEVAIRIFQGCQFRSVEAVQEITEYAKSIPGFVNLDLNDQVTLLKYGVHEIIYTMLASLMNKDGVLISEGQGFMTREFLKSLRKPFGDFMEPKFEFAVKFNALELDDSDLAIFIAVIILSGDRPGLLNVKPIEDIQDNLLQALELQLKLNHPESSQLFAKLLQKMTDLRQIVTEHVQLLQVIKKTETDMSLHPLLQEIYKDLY
T1 sequence (P19793 1-462 partner): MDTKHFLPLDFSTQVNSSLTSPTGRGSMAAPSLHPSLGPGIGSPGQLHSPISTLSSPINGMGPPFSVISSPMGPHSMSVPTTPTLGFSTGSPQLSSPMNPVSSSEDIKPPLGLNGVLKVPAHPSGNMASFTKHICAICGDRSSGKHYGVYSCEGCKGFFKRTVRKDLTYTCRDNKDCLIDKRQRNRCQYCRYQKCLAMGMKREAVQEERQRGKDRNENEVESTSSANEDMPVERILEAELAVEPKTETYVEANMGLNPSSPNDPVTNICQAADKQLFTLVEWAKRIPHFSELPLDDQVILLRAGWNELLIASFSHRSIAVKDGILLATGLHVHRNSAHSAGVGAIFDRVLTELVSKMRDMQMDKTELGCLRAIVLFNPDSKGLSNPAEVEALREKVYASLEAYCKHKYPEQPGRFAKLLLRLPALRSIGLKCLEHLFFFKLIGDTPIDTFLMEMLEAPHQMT
Protocol: The PPARγ:RXRα:4ERPP/CHO-K1 cells obtained in Reference Example 8a were cultured in Ham's F12 medium [produced by Life Technologies, Inc., USA] containing 10% fetal bovine serum [produced by Life Technologies, Inc., USA] and inoculated to a 96-well white plate [produced by Corning Coster Corporation, USA] at 2×10^4 cells/well and cultured overnight at 37° C. in a carbon dioxide gas incubator.
After removal of the medium from the 96-well white plate which had been cultured overnight, Ham's F12 medium containing 80 μl of 0.1% fatty acid-free bovine serum albumin (BSA) and 20 μl of a test compound were added, and the plate was incubated at 37° C. in a carbon dioxide gas incubator for 18 to 24 hours. After removal of the medium, 40 μl of PicaGene 7.5 (produced by Waco Pure Chemicals Industries, Ltd.) diluted twofold with HBSS (HANKS' BALANCED SALT SOLUTION) (produced by BIO WHITTAKER) was added, and after stirring, the luciferase activity was determined using 1420 ARVO Multilabel Counter [produced by Wallac].
A fold induction was calculated from the luciferase activity for addition of each 100 nM of the test compound relative to the luciferase activity of the test compound non-administration group as 1. Results are shown in [Table 1]. […]

Row | fold induction at 0.1 µM (PPARγ-RXRα heterodimer) | melting point | SMILES
1 | 2.8 | 94 to 96 °C | CCCCCCCN(C(=O)c1cc(-c2ccc(F)cc2)oc1C)c1cccc(CSCC(=O)O)c1 [Example 1(3), [(3{[5-(4-Fluorophenyl)-2-methyl-3-furoyl](heptyl)amino}benzyl)thio]acetic acid]
2 | 2.3 |  | Cc1oc(C2CCCCC2)c(COc2cccc(CSCC(=O)O)c2)c1-c1ccc(F)cc1 [Example 5(2), [(3-{[2-Dichlorohexyl-4-(4-fluorophenyl)-5-methyl-3-furyl]methoxy}benzyl)thio]acetic acid]

Reference: patent publication US7553867B2, “Furan or thiophene derivative and medicinal use thereof” (Takeda Pharmaceutical Company Limited, priority 2002, dated 2009)
